Test results reported in the supplement of paper PMC10307832.

Columns and labels:
Experiment in all cases: relative viability (nuclei count vs DMSO), 5 days (fraction); higher = more cells survive
BX 795 = compound: O=C(NCCCNc1nc(Nc2cccc(NC(=O)N3CCCC3)c2)ncc1I)c1cccs1 [BX 795]
Procedure, shortened: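 Viability was read as treated-well nuclei divided by vehicle-well nuclei, using the median across plates. Lung cancer cell lines in 1536-well plates were kept overnight at 37 °C, pinned with five √10-spaced library-drug doses, and after 5 days were Hoechst-stained, imaged at 4× and counted in MetaXpress. Plates passed only with control CV below 25% and at least one doubling.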

BX 795 + Phenformin = compound: O=C(NCCCNc1nc(Nc2cccc(NC(=O)N3CCCC3)c2)ncc1I)c1cccs1 [BX 795] + N=C(N)NC(=N)NCCc1ccccc1 [Phenformin] (partner 250 µM)
Procedure, shortened: (§1)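 Relative viability was taken as the ratio of nuclei in treated wells to nuclei in vehicle wells. Lung cancer cell lines in 1536-well plates received compounds by pin tool one day after seeding, either one drug alone or a fixed anchor-drug dose plus five library-drug doses (not always all listed) in √10 steps. Nuclei were counted on 4× images after 5 days of treatment, and values are medians of duplicate plates.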

BX 795 + Foretinib = compound: O=C(NCCCNc1nc(Nc2cccc(NC(=O)N3CCCC3)c2)ncc1I)c1cccs1 [BX 795] + COc1cc2c(Oc3ccc(NC(=O)C4(C(=O)Nc5ccc(F)cc5)CC4)cc3F)ccnc2cc1OCCCN1CCOCC1 [Foretinib] (partner 0.25 µM)
Procedure, shortened: as §1

BX 795 + Tozasertib = compound: O=C(NCCCNc1nc(Nc2cccc(NC(=O)N3CCCC3)c2)ncc1I)c1cccs1 [BX 795] + Cc1cc(Nc2cc(N3CCN(C)CC3)nc(Sc3ccc(NC(=O)C4CC4)cc3)n2)n[nH]1 [Tozasertib] (partner 0.1 µM)
Procedure, shortened: as §1

BX 795 + Dasatinib = compound: O=C(NCCCNc1nc(Nc2cccc(NC(=O)N3CCCC3)c2)ncc1I)c1cccs1 [BX 795] + Cc1nc(Nc2ncc(C(=O)Nc3c(C)cccc3Cl)s2)cc(N2CCN(CCO)CC2)n1 [Dasatinib] (partner 0.075 µM)
Procedure, shortened: as §1

BX 795 + OSI-027 = compound: O=C(NCCCNc1nc(Nc2cccc(NC(=O)N3CCCC3)c2)ncc1I)c1cccs1 [BX 795] + COc1cccc2cc(-c3nc([C@H]4CC[C@H](C(=O)O)CC4)n4ncnc(N)c34)[nH]c12 [OSI-027] (partner 0.5 µM)
Procedure, shortened: as §1

BX 795 + Luminespib = compound: O=C(NCCCNc1nc(Nc2cccc(NC(=O)N3CCCC3)c2)ncc1I)c1cccs1 [BX 795] + CCNC(=O)c1noc(-c2cc(C(C)C)c(O)cc2O)c1-c1ccc(CN2CCOCC2)cc1 [Luminespib] (partner 0.01 µM)
Procedure, shortened: as §1

BX 795 + Lapatinib = compound: O=C(NCCCNc1nc(Nc2cccc(NC(=O)N3CCCC3)c2)ncc1I)c1cccs1 [BX 795] + CS(=O)(=O)CCNCc1ccc(-c2ccc3ncnc(Nc4ccc(OCc5cccc(F)c5)c(Cl)c4)c3c2)o1 [Lapatinib] (partner 2 µM)
Procedure, shortened: as §1

BX 795 + Navitoclax = compound: O=C(NCCCNc1nc(Nc2cccc(NC(=O)N3CCCC3)c2)ncc1I)c1cccs1 [BX 795] + CC1(C)CCC(c2ccc(Cl)cc2)=C(CN2CCN(c3ccc(C(=O)NS(=O)(=O)c4ccc(N[C@H](CCN5CCOCC5)CSc5ccccc5)c(S(=O)(=O)C(F)(F)F)c4)cc3)CC2)C1 [Navitoclax] (partner 0.5 µM)
Procedure, shortened: as §1

BX 795 + Pictilisib = compound: O=C(NCCCNc1nc(Nc2cccc(NC(=O)N3CCCC3)c2)ncc1I)c1cccs1 [BX 795] + CS(=O)(=O)N1CCN(Cc2cc3nc(-c4cccc5[nH]ncc45)nc(N4CCOCC4)c3s2)CC1 [Pictilisib] (partner 1 µM)
Procedure, shortened: as §1

BX 795 + Olaparib = compound: O=C(NCCCNc1nc(Nc2cccc(NC(=O)N3CCCC3)c2)ncc1I)c1cccs1 [BX 795] + O=C(c1cc(Cc2n[nH]c(=O)c3ccccc23)ccc1F)N1CCN(C(=O)C2CC2)CC1 [Olaparib] (partner 8 µM)
Procedure, shortened: as §1

BX 795 + Linsitinib = compound: O=C(NCCCNc1nc(Nc2cccc(NC(=O)N3CCCC3)c2)ncc1I)c1cccs1 [BX 795] + C[C@]1(O)C[C@@H](c2nc(-c3ccc4ccc(-c5ccccc5)nc4c3)c3c(N)nccn32)C1 [Linsitinib] (partner 1 µM)
Procedure, shortened: as §1

BX 795 + Bortezomib = compound: O=C(NCCCNc1nc(Nc2cccc(NC(=O)N3CCCC3)c2)ncc1I)c1cccs1 [BX 795] + CC(C)C[C@H](NC(=O)[C@H](Cc1ccccc1)NC(=O)c1cnccn1)B(O)O [Bortezomib] (partner 0.002 µM)
Procedure, shortened: as §1

BX 795 + Alpelisib = compound: O=C(NCCCNc1nc(Nc2cccc(NC(=O)N3CCCC3)c2)ncc1I)c1cccs1 [BX 795] + Cc1nc(NC(=O)N2CCC[C@H]2C(N)=O)sc1-c1ccnc(C(C)(C)C(F)(F)F)c1 [Alpelisib] (partner 2 µM)
Procedure, shortened: as §1

BX 795 + Crizotinib = compound: O=C(NCCCNc1nc(Nc2cccc(NC(=O)N3CCCC3)c2)ncc1I)c1cccs1 [BX 795] + C[C@@H](Oc1cc(-c2cnn(C3CCNCC3)c2)cnc1N)c1c(Cl)ccc(F)c1Cl [Crizotinib] (partner 1 µM)
Procedure, shortened: as §1

NCI-H1623 showed a relative viability (BX 795; 0.04 µM) of 1.15, a relative viability (BX 795; 0.1265 µM) of 0.972 and a relative viability (BX 795; 0.4 µM) of 0.989. It also gave a relative viability (BX 795; 1.265 µM) of 0.892, a relative viability (BX 795 + Phenformin; first compound 0.04 µM) of 0.611 and a relative viability (BX 795 + Phenformin; first compound 0.1265 µM) of 0.568. The relative viability (BX 795 + Phenformin; first compound 0.4 µM) was 0.491, the relative viability (BX 795 + Phenformin; first compound 1.265 µM) was 0.516 and the relative viability (BX 795 + Foretinib; first compound 0.04 µM) was 0.913. For the same cell line, the relative viability (BX 795 + Foretinib; first compound 0.1265 µM) was 0.952, the relative viability (BX 795 + Foretinib; first compound 0.4 µM) was 0.88 and the relative viability (BX 795 + Foretinib; first compound 1.265 µM) was 0.892. It also gave a relative viability (BX 795 + Tozasertib; first compound 0.04 µM) of 0.429, a relative viability (BX 795 + Tozasertib; first compound 0.1265 µM) of 0.386 and a relative viability (BX 795 + Tozasertib; first compound 0.4 µM) of 0.392. It also gave a relative viability (BX 795 + Tozasertib; first compound 1.265 µM) of 0.461, a relative viability (BX 795 + Dasatinib; first compound 0.04 µM) of 0.537 and a relative viability (BX 795 + Dasatinib; first compound 0.1265 µM) of 0.572. It also gave a relative viability (BX 795 + Dasatinib; first compound 0.4 µM) of 0.533, a relative viability (BX 795 + Dasatinib; first compound 1.265 µM) of 0.512 and a relative viability (BX 795 + OSI-027; first compound 0.04 µM) of 0.458. It also gave a relative viability (BX 795 + OSI-027; first compound 0.1265 µM) of 0.421, a relative viability (BX 795 + OSI-027; first compound 0.4 µM) of 0.402 and a relative viability (BX 795 + OSI-027; first compound 1.265 µM) of 0.466. It also gave a relative viability (BX 795 + Luminespib; first compound 0.04 µM) of 0.598, a relative viability (BX 795 + Luminespib; first compound 0.1265 µM) of 0.511 and a relative viability (BX 795 + Luminespib; first compound 0.4 µM) of 0.5. It also gave a relative viability (BX 795 + Luminespib; first compound 1.265 µM) of 0.572.

EBC-1 showed a relative viability (BX 795; 0.04 µM) of 1.02, a relative viability (BX 795; 0.1265 µM) of 1.01 and a relative viability (BX 795; 0.4 µM) of 0.931. The relative viability (BX 795; 1.265 µM) was 0.543, the relative viability (BX 795 + Lapatinib; first compound 0.04 µM) was 0.217 and the relative viability (BX 795 + Lapatinib; first compound 0.1265 µM) was 0.189. For the same cell line, the relative viability (BX 795 + Lapatinib; first compound 0.4 µM) was 0.231, the relative viability (BX 795 + Lapatinib; first compound 1.265 µM) was 0.188 and the relative viability (BX 795 + Foretinib; first compound 0.04 µM) was 0.104. For the same cell line, the relative viability (BX 795 + Foretinib; first compound 0.1265 µM) was 0.0912, the relative viability (BX 795 + Foretinib; first compound 0.4 µM) was 0.0982 and the relative viability (BX 795 + Foretinib; first compound 1.265 µM) was 0.0866. The relative viability (BX 795 + Navitoclax; first compound 0.04 µM) was 0.508, the relative viability (BX 795 + Navitoclax; first compound 0.1265 µM) was 0.438 and the relative viability (BX 795 + Navitoclax; first compound 0.4 µM) was 0.401. For the same cell line, the relative viability (BX 795 + Navitoclax; first compound 1.265 µM) was 0.222, the relative viability (BX 795 + Pictilisib; first compound 0.04 µM) was 0.419 and the relative viability (BX 795 + Pictilisib; first compound 0.1265 µM) was 0.351. The relative viability (BX 795 + Pictilisib; first compound 0.4 µM) was 0.262, the relative viability (BX 795 + Pictilisib; first compound 1.265 µM) was 0.157 and the relative viability (BX 795 + Olaparib; first compound 0.04 µM) was 0.794. It also gave a relative viability (BX 795 + Olaparib; first compound 0.1265 µM) of 0.707, a relative viability (BX 795 + Olaparib; first compound 0.4 µM) of 0.765 and a relative viability (BX 795 + Olaparib; first compound 1.265 µM) of 0.355. The relative viability (BX 795 + Linsitinib; first compound 0.04 µM) was 0.957, the relative viability (BX 795 + Linsitinib; first compound 0.1265 µM) was 0.864 and the relative viability (BX 795 + Linsitinib; first compound 0.4 µM) was 0.85. The relative viability (BX 795 + Linsitinib; first compound 1.265 µM) was 0.439, the relative viability (BX 795 + Bortezomib; first compound 0.04 µM) was 0.571 and the relative viability (BX 795 + Bortezomib; first compound 0.1265 µM) was 0.458. It also gave a relative viability (BX 795 + Bortezomib; first compound 0.4 µM) of 0.551, a relative viability (BX 795 + Bortezomib; first compound 1.265 µM) of 0.269 and a relative viability (BX 795 + Alpelisib; first compound 0.04 µM) of 0.874. For the same cell line, the relative viability (BX 795 + Alpelisib; first compound 0.1265 µM) was 0.763, the relative viability (BX 795 + Alpelisib; first compound 0.4 µM) was 0.628 and the relative viability (BX 795 + Alpelisib; first compound 1.265 µM) was 0.34. It also gave a relative viability (BX 795 + Crizotinib; first compound 0.04 µM) of 0.199, a relative viability (BX 795 + Crizotinib; first compound 0.1265 µM) of 0.186 and a relative viability (BX 795 + Crizotinib; first compound 0.4 µM) of 0.184. For the same cell line, the relative viability (BX 795 + Crizotinib; first compound 1.265 µM) was 0.172.
